Experimental data published in patent US20230391748A1, “BICYCLIC INHIBITORS OF IRAK” (priority 2022, published 2023).

Columns and labels:
[1] = target: IRAK4 (Homo sapiens (Human), UniProt Q9NWZ3); assay: IRAK4 ADP-Glo Assay; type: biochemical; conditions: MBP substrate
Outline: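 Human IRAK4 kinase reaction with MBP substrate plus ATP in Tris-HCl/MgCl2/BSA/DTT buffer, pH 7.4, run 60 min at room temperature or 30 min at 30 °C. ADP formed was measured by ADP-Glo luminescence after ATP depletion (40 min) and detection reagent (30 min).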

[2] = test system: IL23p19 in THP-1 Cells; assay: LPS Induced IL23p19 in THP-1 Cells (with IFNγ Primed) Assay; type: cell-based; conditions: Homo sapiens, THP-1, 18 h, read-out: IL23 (THP, LPS) (IC50, μM)
Outline: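 THP-1 cells (50K/well) primed with IFNγ (50 ng/mL) about 18 h, then given compound and stimulated with LPS for 18 h at 37 °C. Secreted IL-23p19 measured by sandwich ELISA with chemiluminescent read-out, giving EC50. Cell Titer Glo used on the remaining cells for toxicity.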

[3] = test system: TNF-α in Human Primary Monocyte-Derived Dendritic Cells; assay: Gardiquimod-Induced TNF-α in Human Primary Monocyte-Derived Dendritic Cells; type: cell-based; conditions: Dendritic cell, IFNγ-primed monocyte-derived dendritic cells, 4 μg/ml Gardiquimod, 6 hours, TNF-α ELISA, read-out: TNFα (DC, GARD) (IC50)
Outline: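 Monocytes differentiated 7 days with GM-CSF and IL-4, then primed 24 h with 50 ng/ml IFN-γ. Compound added 1 h before 6 h stimulation with 4 μg/ml Gardiquimod, 0.5% DMSO final. Supernatant TNF-α measured by chemiluminescent ELISA; EC50 from curve fitting.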

[4] = test system: TNF-α in human PBMCs; assay: R848-induced TNF-α in human PBMCs Assay; type: cell-based; conditions: Homo sapiens, PBMC, 4 h, read-out: TNFα (PBMC, R848) (IC50, μM)
Outline: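 Human PBMCs at 200K/well were pretreated with compound, then R848-stimulated for 4 h at 37 °C, 5% CO2. Supernatant TNF-α quantified by chemiluminescent ELISA; EC50 from curve fitting.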

Chain of IRAK4 (Q9NWZ3 whole entry): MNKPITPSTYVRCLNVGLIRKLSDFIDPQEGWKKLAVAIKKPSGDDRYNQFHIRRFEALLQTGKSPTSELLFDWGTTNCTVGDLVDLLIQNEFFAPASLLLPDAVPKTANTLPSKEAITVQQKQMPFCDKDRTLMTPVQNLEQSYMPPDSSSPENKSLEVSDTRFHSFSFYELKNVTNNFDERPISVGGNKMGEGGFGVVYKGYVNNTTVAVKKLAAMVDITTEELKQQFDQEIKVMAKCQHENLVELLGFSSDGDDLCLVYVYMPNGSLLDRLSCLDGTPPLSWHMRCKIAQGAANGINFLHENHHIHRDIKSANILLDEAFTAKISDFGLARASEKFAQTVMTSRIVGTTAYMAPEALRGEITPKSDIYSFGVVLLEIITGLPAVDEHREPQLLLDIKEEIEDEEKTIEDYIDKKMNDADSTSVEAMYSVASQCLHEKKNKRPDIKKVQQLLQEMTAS

Row | Structure (SMILES) | IC50 [1] [nM] | IC50 [2] [µM] | IC50 [3] [nM] | IC50 [4] [µM]
1 | CC(C)Oc1cc2c(OC[C@@H]3CCC(=O)N3)ncc(-c3cnn([C@H]4CC[C@@](C)(O)CC4)c3)c2cc1C(N)=O [Compound I-41, 4-(1-((1s,4R)-4-hydroxy-4-methylcyclohexyl)-1H-pyrazol-4-yl)-7-isopropoxy-1-(((S)-5-oxopyrrolidin-2-yl)methoxy)isoquinoline-6-carboxamide] | 37.6 | 4.61 | 10000 | 0.509
2 | CC(C)Oc1cc2c(O[C@@H]3CCCN(C(=O)CC#N)C3)ncc(-c3cnn(C4CC4)c3)c2cc1C(N)=O [Compound I-114, (R)-1-((1-(2-cyanoacetyl)piperidin-3-yl)oxy)-4-(1-cyclopropyl-1H-pyrazol-4-yl)-7-isopropoxyisoquinoline-6-carboxamide] | 12.3 | 1.42 | 659 | 0.549
3 | CC(C)Oc1cc2c(OC[C@@H]3CC(F)(F)C(=O)N3)ncc(C#CC3(O)CCOCC3)c2cc1C(N)=O [Compound I-51, (S)-1-((4,4-difluoro-5-oxopyrrolidin-2-yl)methoxy)-4-((4-hydroxytetrahydro-2H-pyran-4-yl)ethynyl)-7-isopropoxyisoquinoline-6-carboxamide] | 5.3 | 1.27 | 1030 | 0.391
4 | CC(C)Oc1cc2c(O[C@@H]3CCCN(C(=O)CC#N)C3)ncc(C#C[C@H]3CC[C@@](C)(O)CC3)c2cc1C(N)=O [Compound I-101, 1-(((R)-1-(2-cyanoacetyl)piperidin-3-yl)oxy)-4-(((1s,4S)-4-hydroxy-4-methylcyclohexyl)ethynyl)-7-isopropoxyisoquinoline-6-carboxamide] | 13.7 | 0.27 | 750 | 3.33
5 | CC(C)Oc1cc2c(OC[C@@H]3CC(F)(F)C(=O)N3)ncc(-c3cnn(C4CCCC4)c3)c2cc1C(N)=O [Compound I-69, (S)-4-(1-cyclopentyl-1H-pyrazol-4-yl)-1-((4,4-difluoro-5-oxopyrrolidin-2-yl)methoxy)-7-isopropoxyisoquinoline-6-carboxamide] | 5.1 | 0.391 | 52.3 | 0.241
6 | CC(C)Oc1cc2c(O[C@@H]3CCCN(C(=O)CC#N)C3)ncc(C#C[C@H]3CC[C@](C)(O)CC3)c2cc1C(N)=O [Compound I-100, 1-(((R)-1-(2-cyanoacetyl)piperidin-3-yl)oxy)-4-(((1r,4R)-4-hydroxy-4-methylcyclohexyl)ethynyl)-7-isopropoxyisoquinoline-6-carboxamide] | 34.8 | 0.96 | 1410 | 3.3
7 | CCO[C@H]1CC[C@H](n2cc(-c3cnc(O[C@@H]4CCCN(C(=O)CC#N)C4)c4cc(OC(C)C)c(C(N)=O)cc34)cn2)CC1 [Compound I-124, 1-(((R)-1-(2-cyanoacetyl)piperidin-3-yl)oxy)-4-(1-(trans-4-ethoxycyclohexyl)-1H-pyrazol-4-yl)-7-isopropoxyisoquinoline-6-carboxamide] | 6.8 | 0.609 | 352 | 12.2
8 | CC(C)Oc1cc2c(O[C@@H]3CCCN(C(=O)CC#N)C3)ncc(C#CC3CCNCC3)c2cc1C(N)=O [Compound I-96, (R)-1-((1-(2-cyanoacetyl)piperidin-3-yl)oxy)-7-isopropoxy-4-(piperidin-4-ylethynyl)isoquinoline-6-carboxamide] | 8 | 7.84 | 1170 | 1.71
9 | CC(C)Oc1cc2c(O[C@@H]3CCCN(C(=O)CC#N)C3)ncc(-c3cnn([C@H]4C[C@@H](N(C)C)C4)c3)c2cc1C(N)=O [Compound I-120, 1-(((R)-1-(2-cyanoacetyl)piperidin-3-yl)oxy)-4-(1-(cis-3-(dimethylamino)cyclobutyl)-1H-pyrazol-4-yl)-7-isopropoxyisoquinoline-6-carboxamide] | 8.4 | 2.83 | 423 | 0.227
10 | CC(C)Oc1cc2c(O[C@@H]3CCCN(C(=O)CC#N)C3)ncc(-c3cnn(C4CCOCC4)c3)c2cc1C(N)=O [Compound I-117, (R)-1-((1-(2-cyanoacetyl)piperidin-3-yl)oxy)-7-isopropoxy-4-(1-(tetrahydro-2H-pyran-4-yl)-1H-pyrazol-4-yl)isoquinoline-6-carboxamide] | 25.3 | 3.91 | 1030 | 7.24
11 | CC(C)Oc1cc2c(OC[C@@H]3CC(F)(F)C(=O)N3)ncc(-c3cnn(C4CCOCC4)c3)c2cc1C(N)=O [Compound I-70, (S)-1-((4,4-difluoro-5-oxopyrrolidin-2-yl)methoxy)-7-isopropoxy-4-(1-(tetrahydro-2H-pyran-4-yl)-1H-pyrazol-4-yl)isoquinoline-6-carboxamide] | 6.8 | 2.26 | 82.7 | 0.292
12 | CC(C)Oc1cc2c(OC[C@@H]3CCC(=O)N3)ncc(C#CC3CN(C(C)C)C3)c2cc1C(N)=O [Compound I-27, (S)-7-isopropoxy-4-((1-isopropylazetidin-3-yl)ethynyl)-1-((5-oxopyrrolidin-2-yl)methoxy)isoquinoline-6-carboxamide] | 5.6 | 0.634 | 514 | 0.176
13 | CC(C)Oc1cc2c(OC[C@@H]3CCC(=O)N3)ncc(-c3cnn([C@H]4C[C@@H](N(C)C)C4)c3)c2cc1C(N)=O [Compound I-43, 4-(1-(cis-3-(dimethylamino)cyclobutyl)-1H-pyrazol-4-yl)-7-isopropoxy-1-(((S)-5-oxopyrrolidin-2-yl)methoxy)isoquinoline-6-carboxamide] | 5 | 3.1 | 355 | 0.701
14 | CC(C)Oc1cc2c(OC[C@@H]3CCC(=O)N3)ncc(-c3cnn(C4CC4)c3)c2cc1C(N)=O [Compound I-32, (S)-4-(1-cyclopropyl-1H-pyrazol-4-yl)-7-isopropoxy-1-((5-oxopyrrolidin-2-yl)methoxy)isoquinoline-6-carboxamide] | 8.5 | 2.21 | 569 | 0.45
15 | CC(C)Oc1cc2c(O[C@@H]3CCCN(C(=O)CC#N)C3)ncc(C#CC3(O)CCOCC3)c2cc1C(N)=O [Compound I-91, (R)-1-((1-(2-cyanoacetyl)piperidin-3-yl)oxy)-4-((4-hydroxytetrahydro-2H-pyran-4-yl)ethynyl)-7-isopropoxyisoquinoline-6-carboxamide] | 20.7 | 10.2 | 15400 | 3.76
16 | CCO[C@H]1CC[C@H](C#Cc2cnc(O[C@@H]3CCCN(C(=O)CC#N)C3)c3cc(OC(C)C)c(C(N)=O)cc23)CC1 [Compound I-98, 1-(((R)-1-(2-cyanoacetyl)piperidin-3-yl)oxy)-4-(((1r,4R)-4-ethoxycyclohexyl)ethynyl)-7-isopropoxyisoquinoline-6-carboxamide] | 25.5 | 0.484 | 136 | 0.22
17 | CC(C)Oc1cc2c(O[C@@H]3CCCN(C(=O)CC#N)C3)ncc(-c3cnn(CC4CCOCC4)c3)c2cc1C(N)=O [Compound I-118, (R)-1-((1-(2-cyanoacetyl)piperidin-3-yl)oxy)-7-isopropoxy-4-(1-((tetrahydro-2H-pyran-4-yl)methyl)-1H-pyrazol-4-yl)isoquinoline-6-carboxamide] | 20.4 | 4.2 | 1500 | 6.5
18 | CC(C)Oc1cc2c(OC[C@@H]3CC(F)(F)C(=O)N3)ncc(C#C[C@H]3CC[C@](C)(O)CC3)c2cc1C(N)=O [Compound I-60, 1-(((S)-4,4-difluoro-5-oxopyrrolidin-2-yl)methoxy)-4-(((1r,4S)-4-hydroxy-4-methylcyclohexyl)ethynyl)-7-isopropoxyisoquinoline-6-carboxamide] | 9.3 | 0.0246 | 21.3 | 0.0778
19 | CC(C)Oc1cc2c(OC[C@@H]3CCC(=O)N3)ncc(C#C[C@H]3CC[C@](C)(O)CC3)c2cc1C(N)=O [Compound I-22, 4-(((1r,4S)-4-hydroxy-4-methylcyclohexyl)ethynyl)-7-isopropoxy-1-(((S)-5-oxopyrrolidin-2-yl)methoxy)isoquinoline-6-carboxamide] | 12.3 | 0.208 | 72.9 | 0.049
20 | CC(C)Oc1cc2c(OC[C@@H]3CCC(=O)N3)ncc(C#CCCN3CCOCC3)c2cc1C(N)=O [Compound I-8, (S)-7-isopropoxy-4-(4-morpholinobut-1-yn-1-yl)-1-((5-oxopyrrolidin-2-yl)methoxy)isoquinoline-6-carboxamide] | 12.3 | 0.332 | 313 | 0.411
21 | CC(C)Oc1cc2c(O[C@@H]3CCCN(C(=O)CC#N)C3)ncc(-c3cnn(C4CCN(C)CC4)c3)c2cc1C(N)=O [Compound I-123, (R)-1-((1-(2-cyanoacetyl)piperidin-3-yl)oxy)-7-isopropoxy-4-(1-(1-methylpiperidin-4-yl)-1H-pyrazol-4-yl)isoquinoline-6-carboxamide] | 19.2 | 4.9 | 217 | 0.145
